Results on seven molecules are retold here after patent US6645996B1, “Physiologically active substances” (Mercian Corporation and Eisai Co., Ltd., priority 1998, dated 2003).

The subject of one data set is aorta pieces of rat. In words: Inhibition of capillary formation in rat aorta model (aorta pieces cultured in collagen gel). In kind it is cell-based. The settings on record: 7th day from addition of sample. The method, then: In a method of screening the antiangiogenic effect, the degree of inhibition to the formation of lumens observed when an aortic fragment of a rat is cultured in a collagen gel was selected as an indicator (Nicosia R. F., Lab. Invest., 63, 115, 1990). Also, for the purpose of analyzing the mechanism of action of the antiangiogenic effect of the resulting compound, measurements were made concerning the effect of inhibiting the growth of endothelial cells by using endothelial cells derived from the human umbilical cord vein and the effect of inhibiting the expression of an adhesion molecules on endothelial cells.
The antiangiogenic potency was evaluated by the inhibition of capillary formation in rat aorta model in which aorta pieces of rat were cultured in collagen gel. That is, the aorta excised from male rat of Sprague-Dawley strain (8-12 weeks age) was washed with a Hanks' solution so that fat tissues around there were removed minutely. The aorta was incised to prepare pieces of 2 mm square and they were allowed to stand in a 24-well plate holding the endothelial cells upside. Then, 500 μl of neutralized Type I collagen (Cell Matrix Type I-A; manufactured by Nitta Gelatin) were poured over each well and allowed to stand at room temperature for about 20 minutes in a clean bench to solidify the gel. After gelling, 500 μl of MCDB 131 medium (manufactured by Chlorella Kogyo) were added thereto followed by incubating in a Co2 incubator (5% CO2) at 37° C. On the next day, the culture medium was exchanged with 500 μl of MCDB 131 medium containing the sample and the incubation was continued. And, at the stage of the 7th day from the addition of the sample, numbers of capillaries formed around the aorta were counted. The IC50 value of each sample is defined as a concentration that the number of blood capillaries is 50% of that observed when no sample was added.

In data set [1] the test system is Endothelial cells derived from human umbilical vein (HUVEC). The data set can be described thus: Inhibitory effect of growth of endothelial cells (MTT method). In kind it is cell-based. The settings on record: three days. The method, then:
Endothelial cells derived from human umbilical vein (HUVEC; manufactured by Sanko Junyaku) incubated in an EGM medium (manufactured by Sanko Junyaku) were adjusted to 1×10^4 cells/ml and each 100 μl were separately placed on a 96-well plate. After incubating overnight, 100 μl of medium containing sample were added thereto followed by incubating for three days. The cell numbers at that time were measured by MTT method. That is, 50 μl of PBS solution containing 0.33% of 3-(4,5-dimethylthiazol-2-yl)-2,5-diphenyltetrazolium bromide (MTT) was added thereto and incubation was continued for further 3-4 hours. After the supernatant liquid of the culture was removed, 100 μl of DMSO was added to dissolve a formazane which was formed in the cells and the absorbance at the wave length of 460 nm was measured by use of plate reader. The IC50 value is defined as a concentration that the absorbance was 50% of that observed when no sample was added.
On the technique in general: Tetrazolium assays rely on reduction of a dye to a coloured formazan, in cell work by metabolically active cells.

The nature of data set [2]: Safety of VD1207 analogues, intraperitoneal administration over 4 days. Details: key to Blood (WBC) / Blood (PLAT) / Biochemistry (UN) / Biochemistry (GPT) / Weight (liver) / Weight (kidney) / Weight (lung) / Weight (spleen) / Body weight / Blood (RBC): —: “-” indicates no abnormality; “↑” and “↓” indicate an increase and a decrease, respectively; “↑” and “↓” indicate an increase and a decrease, respectively. In kind it is in vivo. The method, then:
Each of VD1207B, C, D, E, F and G2 was continuously administered intraperitoneally at each dose of 1 mg/kg and 2 mg/kg over 4 days to examine the safety of VD1207 analogues.

Data set [3] is described as follows: Solubility (analysis data). In kind it is physicochemical.
In the next data set the test system is VCAM-1. In words: Inhibition of TNFα-induced expression of adhesion molecule VCAM-1 on endothelial cells. In kind it is cell-based, human. The settings on record: HUVEC, TNFα 1 ng/ml, 4 hours. The method, then: (§1) Endothelial cells derived from human umbilical vein (HUVEC) were cultured on a 96-well plate until they were fallen in a confluent state. The culture broth was removed. After 150 μl of a new culture broth was added to each well, 20 μl of a sample solution was added thereto. After 15 minutes, 30 μl of TNFα was added such that the final concentration became 1 ng/ml and it was incubated at 37° C. for 4 hours in a 5% CO2 incubator. Next, the culture broth was removed and the cells were washed twice with a phosphate buffer (PBS). Further, a PBS solution containing 0.025% glutaraldehyde was added and the well was allowed to stand at room temperature for 6 minutes to fix the cells. After the cells were immobilized, they were washed twice with 200 μl of phosphate buffer (PBSA) containing 0.25% BSA. Thereafter 100 μl of a PBSA solution containing 1 μg/ml of mouse anti-human VCAM-1 (R&D systems) or a mouse anti-human E-selectin antibody (R&D systems) was added to each well. The well was allowed to stand at room temperature for 30 minutes and then the cells were again washed. A PBSA solution containing 100 μl of peroxidase-conjugated goat anti-mouse antibody (Cosmo Bio Co., Ltd.) was added to the well. Then the well was allowed to stand at room temperature for 30 minutes and thereafter the cells were washed. In succession, 100 μl of 3,3*,5,5*-tetramethylbenzyidine (TMB) substrate solution was added to develop a color. Next, the coloring was stopped by 100 μl of 1M phosphoric acid to measure the absorbance at 450 nm.

The subject of a further data set is E-selectin. The data set can be described thus: Inhibition of TNFα-induced expression of adhesion molecule E-selectin on endothelial cells. The settings on record: HUVEC, TNFα 1 ng/ml, 4 hours. In kind it is cell-based, human. The procedure:
as §1

Where [4] appears, read: 2 mg/kg i.p. 4 days, listed as E.
Setting [5] is: 2 mg/kg i.p. 4 days, listed as F.

As for `CCC1OC12C(O)CC(C(CC(C)C)C(=O)c1cc(CC(C)C)c(O)c(C=O)c1O)OC2O` (centres unmarked) [VD1207 G2], the “IC50 (number of blood capillaries 50% of that without sample)” value in the data set with aorta pieces of rat came to 0.034 µg/mL. In addition, the “IC50 (growth of endothelial cells, absorbance 50% of no sample)” value in data set [1] was found to be 0.07 µg/mL. Moreover, in data set [2] (1 mg/kg i.p. 4 days), the “Biochemistry (GPT)” value is reported as “—”, the “Biochemistry (UN)” value was “—”, the “Blood (PLAT)” value is “—” and the “Blood (RBC)” value was “—”. Moreover, in data set [2] (1 mg/kg i.p. 4 days), the “Blood (WBC)” value is reported as “—”, the Body weight result is recorded as “—”, the “Weight (kidney)” value is given as “—” and the “Weight (liver)” value is reported as “↑”. Besides, in data set [2] (1 mg/kg i.p. 4 days), the “Weight (lung)” value is reported as “—” and the “Weight (spleen)” value is reported as “—”. For the same molecule, in data set [2] (2 mg/kg i.p. 4 days), the “Biochemistry (GPT)” value is reported as “—”, the “Biochemistry (UN)” value was “—”, the “Blood (PLAT)” value is on record as “—” and the “Blood (RBC)” value is “—”. In data set [2] (2 mg/kg i.p. 4 days), the “Blood (WBC)” value is reported as “↓”, the Body weight entry was “—”, the “Weight (kidney)” value is on record as “—” and the “Weight (liver)” value is reported as “↑”. In data set [2] (2 mg/kg i.p. 4 days), the “Weight (lung)” value is “—” and the “Weight (spleen)” value is “—”. Besides, in data set [3], the “Solubility in ethyl acetate, chloroform and dimethyl sulfoxide” value (“Solubility in ethyl acetate” for short) is “soluble”; the “Solubility in neutral water” value is listed as “insoluble”.
On to `CCC1OC12C(O)CC(C(CC(C)C)C(=O)c1cc(C(OC)C(C)C)c(O)c(C=O)c1O)OC2O` (single isomer, unassigned) [VD1207 E], for which the “IC50 (number of blood capillaries 50% of that without sample)” value in the data set on aorta pieces of rat (listed as E) was found to be 0.047 µg/mL. Moreover, the “IC50 (growth of endothelial cells, absorbance 50% of no sample)” value in data set [1] (listed as E) worked out at 0.21 µg/mL. Further, the “VCAM-1 (IC50 of expression)” value in the data set on VCAM-1 (listed as E) stood at 2.59 µg/mL. In addition, the “E-select (IC50 of expression)” value in the data set on E-selectin (listed as E) was found to be 4.44 µg/mL. Besides, in data set [2] (1 mg/kg i.p. 4 days), the “Biochemistry (GPT)” value is “—”, the “Biochemistry (UN)” value is “—”, the “Blood (PLAT)” value is “—” and the “Blood (RBC)” value is “—”. In addition, in data set [2] (1 mg/kg i.p. 4 days), the “Blood (WBC)” value was “—”, the Body weight result was “—”, the “Weight (liver)” value is “↑” and the “Weight (lung)” value was “—”. Besides, in data set [2] (1 mg/kg i.p. 4 days), the “Weight (spleen)” value is given as “—”. Also, the “Weight (kidney)” value in data set [2] (1 mg/kg i.p. 4 days, listed as E) is recorded as “—”. The “Blood (WBC)” value in data set [2] (2 mg/kg i.p. 4 days) is reported as “↓”. In data set [2] (setting [4]), the “Weight (kidney)” value is on record as “—” and the “Weight (lung)” value is recorded as “—”. In addition, in data set [3], the “Solubility in ethyl acetate” value is “soluble”; the “Solubility in neutral water” value was “insoluble”.
On to `CCC1OC12C(O)CC(C(CC(C)C)C(=O)c1cc(C(OC)C(C)C)c(O)c(C=O)c1O)OC2O` (single isomer, unassigned) [VD1207 F], for which the “IC50 (number of blood capillaries 50% of that without sample)” value with aorta pieces of rat (listed as F) came to 0.067 µg/mL. In data set [1] (listed as F), the “IC50 (growth of endothelial cells, absorbance 50% of no sample)” value worked out at 0.06 µg/mL. The “VCAM-1 (IC50 of expression)” value in the data set with VCAM-1 (listed as F) is <0.63 µg/mL. Also, in the data set on E-selectin (listed as F), the “E-select (IC50 of expression)” value amounted to 0.84 µg/mL. In data set [2] (1 mg/kg and 2 mg/kg i.p. 4 days), the “Weight of each of the liver, kidney and lung (autoptic findings)” value is given as “increase”. In data set [2] (1 mg/kg i.p. 4 days), the “Blood (WBC)” value is “—” and the “Weight (lung)” value is recorded as “—”. The “Weight (kidney)” value in data set [2] (1 mg/kg i.p. 4 days, listed as F) is “↑”. Moreover, in data set [2] (2 mg/kg i.p. 4 days), the “Biochemistry (GPT)” value is reported as “—”, the “Biochemistry (UN)” value is recorded as “—”, the “Blood (PLAT)” value is recorded as “—” and the “Blood (RBC)” value is given as “—”. In addition, in data set [2] (2 mg/kg i.p. 4 days), the “Blood (WBC)” value was “↓”, the Body weight entry is recorded as “—”, the “Weight (liver)” value was “↑” and the “Weight (spleen)” value is listed as “—”. In data set [2] (setting [5]), the “Weight (kidney)” value was “↑” and the “Weight (lung)” value was “↑”. Moreover, in data set [3], the “Solubility in ethyl acetate” value was “soluble”; the “Solubility in neutral water” value was “insoluble”.
Take `CCC1OC12C(O)CC(C(CC(C)C)C(=O)c1cc(C(=O)C(C)C)c(O)cc1O)OC2O` (single isomer, unassigned) [VD1207 A2]: in the data set with aorta pieces of rat, the “IC50 (number of blood capillaries 50% of that without sample)” value amounted to 1 µg/mL. Besides, the “IC50 (growth of endothelial cells, absorbance 50% of no sample)” value in data set [1] (listed as A2) came out at 18.7 µg/mL. Moreover, in data set [3], the “Solubility in ethyl acetate” value was “soluble”; the “Solubility in neutral water” value was “insoluble”.
For `CCC1OC12C(O)CC(C(CC(C)C)C(=O)c1cc(C(=O)C(C)C)c(O)cc1O)OC2O` (single isomer, unassigned) [VD1207 A1], in data set [1] (listed as A1), the “IC50 (growth of endothelial cells, absorbance 50% of no sample)” value turned out to be 17.6 µg/mL. For the same molecule, in data set [3], the “Solubility in ethyl acetate” value is reported as “soluble”; the “Solubility in neutral water” value is “insoluble”.
With `CCCC(C(=O)c1cc(CC(C)C)c(O)c(C=O)c1O)C1CC(O)C2(OC2CCC)C(O)O1` (centres unmarked) [VD1207 G1], the “IC50 (number of blood capillaries 50% of that without sample)” value with aorta pieces of rat is 0.070 µg/mL. The “IC50 (growth of endothelial cells, absorbance 50% of no sample)” value in data set [1] stood at 0.11 µg/mL. Also, in data set [3], the “Solubility in ethyl acetate” value was “soluble”; the “Solubility in neutral water” value is “insoluble”.
As to `CCCC(C(=O)c1cc(CC(C)C)c(O)c(C(C)=O)c1O)C1CC(O)C2(OC2CC)C(O)O1` (centres unmarked) [VD1207 H], the “IC50 (number of blood capillaries 50% of that without sample)” value in the data set with aorta pieces of rat was determined as 0.38 µg/mL. In data set [1], the “IC50 (growth of endothelial cells, absorbance 50% of no sample)” value was determined as 0.52 µg/mL. In the data set on VCAM-1, the “VCAM-1 (IC50 of expression)” value was 1.06 µg/mL. In the data set on E-selectin, the “E-select (IC50 of expression)” value was determined as 2.48 µg/mL. In data set [3], the “Solubility in ethyl acetate” value is “soluble”; the “Solubility in neutral water” value is “insoluble”.
